Entries after “also recorded” stand apart in the source; their conditions may differ. Peptide text beside a SMILES is read from it. * marks the point of attachment. X1 = NC(=O)C12CC3CC(CC(N*)(C3)C1)C2
Tests used:
dentate gyrus = experiment: Expression of synaptophysin and synapsin I in the DG (optical density); format: in vivo, mice; settings: 25 nmol/day for 35 days
Experimental: For double labeling of BrdU and NeuN, brain sections were pretreated with 2 M HCl at 37° C. for 30 min and neutralized with 0.1 M borate buffer (pH 8.5) for 10 minutes. Tissue sections were incubated first for 30 min with blocking buffer (4% normal goat serum+0.1% Tween-20 in PBS) and then overnight at 4° C. in the presence of BrdU (Millipore Corporation, USA) and NeuN (Millipore Corporation) antibodies diluted 1:400 and 1:100, respectively. To determine the integrity of presynaptic terminals, tissues were labeled with anti-synaptophysin (1:200; Clone SY38, Millipore Corporation) or anti-synapsin I (1:200; Stressgen Biotechnologies Corporation, Canada). The brain sections were incubated in primary antibody over night at 4° C., respectively. Alexa 488 and 594 (1:500; Invitrogen, USA) were used as secondary antibodies. All images were obtained using Nikon Eclipse 90i and D-Eclipse C1 microscopes (Nikon Corporation, Japan).
For quantitative analysis of the expression of synaptophysin and synapsin I in DG, every tenth section in a series of 40 μm coronal sections throughout the hippocampus was analyzed. The entire area of GCL was outlined. Maximum projection images were then generated based on confocal z-stacks, and antibody staining was quantified by measuring the mean optical density (OD) with the help of NIH Image J program, version 1.32j (http://rsb.info.nih.gov/ij/).

[1] = General examination (physical state, body weight, exploratory activity, swim speed, floating); format: in vivo, mice; settings: 25 nmol/day for 35 days
Experimental: All in vivo studies for characterization of compounds (stereology and behavioral analysis) were performed on 8-10-month-old female retired breeders of C57Bl6 background. Animals were acclimatized for at least 3 weeks to exclude occasional pregnant mice from the studies. Mice were group-housed (3 animals per cage) with a 12:12 hours light/dark cycle and with free access to food and water.
(§1) For the compound treatment, mice (8 animals/group) received subcutaneous implants of extended release depot pellets containing P21 or P22 at 25 nmol/day for 35 days of continuous dosing (Innovative Research of America, USA). For the control group (8 animals), pellets consisted of the carrier polymer only. Mice were anesthetized with 2.5% Avertin (0.38 ml for a 25 g animal). Under sterile conditions, pellets were implanted subcutaneously along the anterolateral aspect of the right shoulder with a precision trochar (Innovative Research of America). After recovery of anesthesia, animals were transferred to the animal colony. No complications associated with the implantation and treatment were observed. All procedures on animals were conducted in accordance with approved protocols from our Institutional Animal Welfare Committee.
The physical state and condition of animals were carefully monitored throughout the treatment by evaluating grooming, physical state and clasping reflex. Body weight was also recorded.
The test used was an adaptation of the procedure previously described by Sargolini and collaborators (Sargolini, F., et al. Behav Brain Res 138 (2003):153-63). The testing apparatus was a classic open field (i.e. a PVC square arena, 50×50 cm, with walls 40 cm high). The open field was placed in a part of the room separated from the experimentator with a black opaque curtain. The open field was surmounted by a video camera connected to a computer. Three objects were employed in this task. The general procedure consisted of three different phases: a familiarization phase (1 session of 20 min), a sample phase, and a test phase. On the first days, mice were individually submitted to the familiarization session during which they were introduced in the empty arena in order to become familiar with the apparatus. This familiarization session allowed to record a baseline level of locomotor activity (measuring the distance covered in the open field) and of anxiety (measuring the time the animals spent in the centre of the arena during the first five minutes). On the second day each mouse was first submitted to the sample phase (session 1, ten minutes) for which two identical objects were placed in a symmetric position from the centre of the arena. After a 15 minute delay during which the mouse returned to its home cage, it was reintroduced in the arena to perform the test phase (session 2, 10 min). The mouse was then exposed to two objects: a familiar object (previously presented during the sample phase) and a new object, placed at the same location as during the sample phase. Data collection was performed using a video tracking system (Smart version 2.0.14 software, Pan Lab/San Diego Instruments). Object discrimination was calculated as follows: OD=(time spent close to new object)/(time spent close to new object)+(time spent close to old object)×100

normal adult mice [2] = experiment: One-trial object recognition test; format: in vivo; settings: 25 nmol/day
Experimental: as §1
In the one-trial object recognition task, animals are exposed to two different objects which they have to identify as novel or familiar based on the memory of an earlier experience with one of the two objects they encountered in the same open field. The familiar object is explored shorter than the novel encountered one because the representation of the former is still available in memory. The one-trial object recognition task tests some aspects of episodic memory but is limited to memory of an object (what), the location of an object (where), and the context in which it was encountered (which). However, the temporal dimension of the episode remains inaccessible to the experimentator, and because of this reason this task in animals is considered a test of short term memory.
(§2) The test used was an adaptation of the procedure previously described by Sargolini and collaborators (Sargolini, F., et al. Behav Brain Res 138 (2003):153-63). The testing apparatus was a classic open field (i.e. a PVC square arena, 50×50 cm, with walls 40 cm high). […] Object discrimination was calculated as follows: OD=(time spent close to new object)/(time spent close to new object)+(time spent close to old object)×100

normal adult mice [3] = experiment: Open field, time in the centre of the arena (anxiety); format: in vivo; settings: 25 nmol/day, first five minutes of familiarization session
Experimental: as §1
as §2, with “high). The open field was placed in a part of the room separated from the experimentator with a black opaque curtain.” for “high).”

[4] = tested on: LIF-induced STAT3 phosphorylation at Tyr705 in HepG2 cells; experiment: LIF-induced STAT3 phosphorylation in HepG2 cells (Western blot); format: cell-based, human; settings: 15 min
Experimental: HepG2 cells were treated with different concentrations of P21 together with 0.25 nM LIF for 15 min, and then the STAT3 phosphorylation at Tyr705 (pY-STAT3) was determined by Western blots. The pY-STAT3 value was normalized to total STAT3 expression. Data are presented as percentages of the value from cells treated with 0.25 nM LIF alone (100%). *p<0.05; **p<0.01.
To investigate the molecular mechanism of action of compound P21 in LIF signaling, HepG2 human hepatoma cell (ATCC, USA) at 80% confluence were treated with different concentrations of P21 and with 0.25 nM LIF (Peprotec, Inc., USA) for 15 min. The cells were lysed and subjected to Western blots developed with antibodies anti-phospho-Tyr 705 STAT3 and anti-STAT3 (Cell signaling Technology, USA).
To investigate whether P21 affects LIF signaling pathway, HepG2 cells were treated with different concentrations of P21 from 0.01 to 1000 nM along with 0.25 nM LIF for 15 min, and then measured STAT3 phosphorylation by Western blots. […] In HepG2 cells, 10 nM of P21 inhibited ˜30% of LIF-induced phosphorylation of STAT3 (p<0.005, student t-test; FIG. 15).

[5] = General examination (physical state, body weight, exploratory activity, swim speed, floating); format: in vivo, mice; settings: 25 nmol/day for 35 days; remark: listed apart in the source

CC(=O)N[C@@H](CC(=O)O)C(=O)NCC(=O)NCC(=O)N[C@@H](CC(C)C)C(=O)NC12CC3CC(C1)CC(C(N)=O)(C3)C2 [Peptide P21, Ac-DGGL^AG-NH2] (Ac-DGGL-X1)
synapsin I immunoreactivity in the GCL and MCL (dentate gyrus): significantly promoted expression; also recorded: Significant increases
synaptophysin immunoreactivity in the GCL and MCL (dentate gyrus): significantly promoted expression; also recorded: Significant increases
exploratory behavior / exploratory activity ([1]; open field): no alteration; also recorded: did not induce any effect
body weight ([1]; subcutaneous pellets): no alteration; also recorded: did not induce any effect
general physical state ([1]; subcutaneous pellets): no alteration
percentage of discrimination (object discrimination) (normal adult mice [2]; compared to other groups): significantly increased; also recorded: significantly improved the ability to discriminate a new object
time exploring the new object versus the familiar object (normal adult mice [2]; test phase after 15 minute delay): clearly spent more time exploring the new object
level of anxiety (time in the center of the open field) (normal adult mice [3]): spent more time in the center of the open field than control animals; also recorded: reduced anxiety level
inhibition of LIF-induced phosphorylation of STAT3 ([4]; 10 nM P21, 0.25 nM LIF): ~30%
LIF-induced STAT3 phosphorylation, concentration dependence ([4]; 0.01 to 1000 nM P21, 0.25 nM LIF): dose-dependent manner; also recorded: inhibited slightly in a dose-dependent manner
floating behavior in the water maze task (sign of depression or locomotor impairment) [5]: no floating behavior was observed
swim speed ([5]; water maze): no alteration; also recorded: did not induce any effect

Source: patent publication US8592374B2, “Neurotrophic peptides” (Research Foundation for Mental Hygiene, Inc., priority 2007, dated 2013)
